Measured values as given in patent publication US20100178260A1, “COMPOSITION COMPRISING A RETINOID, AN ADENOSINE-BASED NONPHOSPHATED COMPOUND, AND A SEMICRYSTALLINE POLYMER” (L'OREAL, priority 2009, published 2010).

Test system: Realskin reconstructed epidermis (filaggrin, marker for epidermal differentiation)
Experiment: Epidermal differentiation (filaggrin immunolabelling) in Realskin reconstructed epidermis model
Type: cell-based
Settings: incubated from D 20, analysed from D 27
Procedure: The effects of the combination are evaluated with respect to epidermal differentiation and proliferation in the […] reconstructed epidermis model. […] The epidermises are analysed histologically and by filaggrin (marker for epidermal differentiation) immunolabelling starting from D 27. Filaggrin, which is a late differentiation marker, is a product of degradation of profilaggrin, a high MW phosphoprotein contained in the keratohyalin granules. At the moment the keratinocyte transforms into a corneocyte, the keratohyalin granules disaggregate, and the profillagrin undergoes sequential proteolysis which releases oligomers and then monomers of filaggrin. The results arc illustrated in FIG. 1.

SMILES	delay in differentiation (filaggrin immunolabelling) (Retinol at 250 μM) [%]	differentiation (filaggrin immunolabelling) (Adenosine at 10 μM)
CC1=C(/C=C/C(C)=C/C=C/C(C)=C/CO)C(C)(C)CCC1 [retinol]	−36	
Nc1ncnc2c1ncn2[C@@H]1O[C@H](CO)[C@@H](O)[C@H]1O [adenosine]		+11%
